In the experiment the test system is Staphylococcus aureus. The experiment can be described thus: Antibacterial activity against Staphylococcus aureus ATCC 29213 by CLSI method. The experiment is classed as functional.

Here are results for 4 compounds from ChEMBL document CHEMBL4371100, “Antimicrobial Chrysophaentin Analogs Identified from Laboratory Cultures of the Marine Microalga Chrysophaeum taylorii” (2019).

Structures are written as SMILES. In brackets after ≈: the same amount, converted by molar mass.

By MIC is commonly meant the lowest concentration that inhibits growth of the organism.

`Oc1cc(C/C=C\Cc2c(Br)c(O)cc(O)c2Br)c(O)cc1Br` came in with an MIC of 40 µg/mL (≈ 78.6 µM). Compound `Oc1cc(C/C=C(/Cl)Cc2c(Br)c(O)cc(O)c2Br)c(O)cc1Cl` came in with an MIC of 10 µg/mL (≈ 20 µM). In turn, `Oc1cc(O)cc(C/C(Cl)=C\Cc2cc(O)c(-c3c(O)cc(C/C(Cl)=C\Cc4cc(O)c(Cl)cc4O)cc3O)cc2O)c1` gave an MIC of 10 µg/mL (≈ 15.5 µM). As to `Oc1cc(C/C=C\Cc2c(Br)c(O)cc(O)c2Br)c(O)cc1Cl`, the MIC was 40 µg/mL (≈ 86.1 µM).
